row,flash point,Structure (SMILES)
1,43.00 °C,C=C(CCl)C[Si](C)(C)C [2-Chloromethyl-3-trimethylsilyl-1-propene]
2,26.00 °C,C[Si](C)(C)C1C=CCC1 (centres undefined) [3-(Trimethylsilyl)cyclopentene]
3,0.00 °C,C=CCO[Si](C)(C)C [Allyloxytrimethylsilane]
4,62.00 °C,C[Si](C)(C)Cc1ccccc1 [Benzyltrimethylsilane]
5,-7.00 °C,CN(C)[Si](C)(C)N(C)C [Bis(dimethylamino)dimethylsilane]
6,41.00 °C,C[Si](C)(Cl)CBr [Bromomethyldimethylchlorosilane]
7,29.00 °C,C[Si](C)(C)C1C=CC=C1 [Cyclopentadienyltrimethylsilane]
8,-16.00 °C,C[Si](C)(Cl)Cl [Dimethyldichlorosilane]
9,-8.00 °C,CO[Si](C)(C)OC [Dimethyldimethoxysilane]
10,-4.00 °C,CC[Si](C)(C)Cl [ETHYLDIMETHYLCHLOROSILANE]
11,-27.00 °C,CCO[Si](C)(C)C [Ethoxytrimethylsilane]
12,27.00 °C,CN([Si](C)(C)C)[Si](C)(C)C [Heptamethyldisilazane]

# Continued, compound first:
row,Structure (SMILES),flash point
1,C[Si](C)(C)O[Si](C)(C)O[Si](C)(C)O[Si](C)(C)Cl [1-Chlorononamethyltetrasiloxane],74.00 °C
2,CCCCCC#C[Si](C)(C)C [1-Heptynyltrimethylsilane],42.00 °C
3,"C=C[Si]1(C)O[Si](C)(C=C)O[Si](C)(C=C)O[Si](C)(C=C)O1 (centres undefined) [2,4,6,8-Tetravinyl-2,4,6,8-tetramethylcyclotetrasiloxane]",112.00 °C
4,C[Si](Cl)(Cl)CCC#N [2-Cyanoethylmethyldichlorosilane],60.00 °C
5,CCO[Si](CCC#N)(OCC)OCC [2-Cyanoethyltriethoxysilane],86.00 °C
6,CO[Si](CCCCl)(OC)OC [3-Chloropropyltrimethoxysilane],75.00 °C
7,CCN(CC)[Si](C)(C)N(CC)CC [Bis(diethylamino)dimethylsilane],35.00 °C
8,"C[Si](C)(Cl)CCC(F)(F)F [Chlorodimethyl(3,3,3-trifluoropropyl) silane]",20.00 °C
9,Cl[Si](Cl)(Cl)C1CCCCC1 [Cyclohexyltrichlorosilane],85.00 °C
10,Cl[SiH](Cl)C1CCCC1 [Cyclopentyldichlorosilane],43.00 °C
11,C[Si]1(C)O[Si](C)(C)O[Si](C)(C)O[Si](C)(C)O[Si](C)(C)O1 [Decamethylcyclopentasiloxane],77.00 °C
12,CC(C)(C)[Si](C)(Cl)C(C)(C)C [Di-t-butylmethylchlorosilane],69.00 °C
13,C[Si](Cl)(Cl)C(Cl)Cl [Dichloromethylmethyldichlorosilane],28.00 °C
14,CC[SiH2]CC [Diethylsilane],-20.00 °C
15,C[SiH](C)c1c(F)c(F)c(F)c(F)c1F [Dimethyl(pentafluorophenyl) silane],40.00 °C
16,C[SiH](C)Cl [Dimethylchlorosilane],-28.00 °C
17,CCO[Si](C)(C)OCC [Dimethyldiethoxysilane],11.00 °C
18,Cl[Si](Cl)(c1ccccc1)c1ccccc1 [Diphenyldichlorosilane],142.00 °C
19,CO[Si](OC)(c1ccccc1)c1ccccc1 [Diphenyldimethoxysilane],121.00 °C
20,C=C[Si](C)(C)C=C [Divinyldimethylsilane],8.00 °C
21,C[Si](C)(C)O[Si](C)(C)O[Si](C)(C)O[Si](C)(C)O[Si](C)(C)C [Dodecamethylpentasiloxane],79.00 °C
22,CC[Si](OC(C)=O)(OC(C)=O)OC(C)=O [Ethyltriacetoxysilane],104.00 °C

# From a flash point compilation (Sun et al. 2020)
